Measurements from ChEMBL document CHEMBL1142509, “Building skeletally diverse architectures on the Indoline Scaffold: the discovery of a chemical probe of focal adhesion kinase signaling networks” (Bioorg Med Chem, 2008).
pIC50: −log10 of the molar value. Calls of active or inactive are those of the source. No cut-off for these calls is given here.

Legend:
MDA-MB-231 = experiment: Antiinvasive activity against human MDA-MB-231 cells at 25 uM; type: functional, cell-based
[1] = molecular target: Focal adhesion kinase 1 (Homo sapiens) (UniProt Q05397); experiment: Inhibition of human FAK at 30 uM
Chain of Focal adhesion kinase 1 (Homo sapiens) (Q05397 2-1052 limits assumed): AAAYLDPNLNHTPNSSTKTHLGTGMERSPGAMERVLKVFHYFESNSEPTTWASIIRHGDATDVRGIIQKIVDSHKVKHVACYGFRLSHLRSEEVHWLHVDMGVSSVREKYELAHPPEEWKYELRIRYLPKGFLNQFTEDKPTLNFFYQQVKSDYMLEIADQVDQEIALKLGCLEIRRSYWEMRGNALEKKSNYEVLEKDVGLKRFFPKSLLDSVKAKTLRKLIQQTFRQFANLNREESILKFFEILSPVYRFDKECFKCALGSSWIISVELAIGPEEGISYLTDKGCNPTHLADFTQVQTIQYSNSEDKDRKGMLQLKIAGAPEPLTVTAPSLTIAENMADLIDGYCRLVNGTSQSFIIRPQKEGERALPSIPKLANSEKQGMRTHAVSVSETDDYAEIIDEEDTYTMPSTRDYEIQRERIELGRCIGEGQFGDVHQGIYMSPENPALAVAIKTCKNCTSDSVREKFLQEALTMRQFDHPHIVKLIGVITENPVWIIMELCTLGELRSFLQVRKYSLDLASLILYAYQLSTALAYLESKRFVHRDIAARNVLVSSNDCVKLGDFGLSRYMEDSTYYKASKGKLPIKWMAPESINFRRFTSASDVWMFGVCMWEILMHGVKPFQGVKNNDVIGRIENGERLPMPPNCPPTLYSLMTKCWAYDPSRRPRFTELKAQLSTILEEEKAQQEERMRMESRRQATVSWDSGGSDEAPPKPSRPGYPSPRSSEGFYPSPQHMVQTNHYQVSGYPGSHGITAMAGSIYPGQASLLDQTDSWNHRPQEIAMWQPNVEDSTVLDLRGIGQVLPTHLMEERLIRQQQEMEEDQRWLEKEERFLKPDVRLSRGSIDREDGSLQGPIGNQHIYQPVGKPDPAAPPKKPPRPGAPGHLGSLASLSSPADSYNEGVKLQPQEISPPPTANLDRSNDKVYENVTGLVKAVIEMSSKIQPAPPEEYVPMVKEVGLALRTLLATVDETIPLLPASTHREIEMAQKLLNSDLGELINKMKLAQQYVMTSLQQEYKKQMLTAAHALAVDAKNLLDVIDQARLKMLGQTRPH

[2] = molecular target: Focal adhesion kinase 1 (Homo sapiens) (UniProt Q05397); experiment: Inhibition of FAK in human MDA-MB-231M cells assessed as phosphorylated tyrosine 397 levels at 25 uM after 1 hr by Western blot; type: cell-based
[3] = Antiproliferative activity against human MDA-MB-231M cells after 96 hrs by MTT assay; type: functional, cell-based
Homo sapiens = organism: Homo sapiens; experiment: Inhibition of human MDA-MB-231M cell motility assessed as remaining wound area at 25 uM after 24 hrs by wound healing assay; type: functional

Compound: C=CCOC(=O)N1c2ccc(OCCCOC3CCCCO3)cc2C[C@H]1[C@@H](CC=C)OC(C)=O (mixture of isomers)
- Activity (MDA-MB-231): Active
- inhibition [1]: 30%
- Activity [2]: Active
- pIC50 [3]: 4.41
- Activity (Homo sapiens): Active
